# Laboratory results from PMC7156724, “Potent BRD4 inhibitor suppresses cancer cell-macrophage interaction” (Nature Communications, 2020).
# “And” between values parts separate entries of the source, which are not always exact repeats. Identical values can stand only once. Like-named read-outs stand apart in the source and are kept apart here.
# Assays:
# H526 cells = assay: MTT cell growth assay, H526; type: cell-based, human; conditions: 5 days
# Method: Fig. 2 NHWD-870 inhibited BRD4 phosphorylation and c-MYC expression, and suppressed cell growth. a Representative western blot analysis of p-BRD4 (s484/488), BRD4, c-MYC, and GAPDH after treatment of MDA-MB231, SUM159, A2780 ES-2, and H526 cells with JQ-1 or NHWD-870 at the indicated concentrations for 24 h. GAPDH served as the loading control. Selected from three independent experiments. b MTT assays of H526, A2780, ES-2, and MDA-MB231 cells treated with JQ-1 or NHWD-870 at the indicated concentrations for 5 days. Data are presented as mean ± SEM from three independent experiments. c, d Clonogenic assays of H526, A2780, ES-2 and MDA-MB231 cells treated with 250 nM JQ-1 or NHWD-870 for 5 days. Shown are representative images (c) and quantification of colonies (d). […] Shown are representative images (e) and quantification of relative colony sizes (f). Scale bar, 50 μm. Data are presented as mean ± SEM from five independent experiments. p values were calculated using two-tailed, unpaired t tests in this figure. **p < 0.01; ***p < 0.001. Source data are provided as a Source Data file.
# 37℃, 5% CO2. […]
# [1] = Concentration in lungs and tumors of H526 xenograft model; type: in vivo, mouse; conditions: for concentration at 8 h / concentration at 24 h: female, BALB/c nude, mouse, oral
# From the text: Supplementary Figure 7. Pharmacokinetic profile of NHWD-870 using mouse and rat models. […]
# 98615821 on day 21. These mice were administrated the indicated drug daily for 21 days. Data are represented as mean ± SEM of 3 independent experiments. Source data are provided as a Source Data file. […]
# 9. In vivo pharmacokinetics study. Mouse and SD rat models were used to evaluate pharmacokinetic property of NHWD-870. NHWD-870 was administrated […]
# Concentration of drugs in plasma, lung and tumor tissues were measured for the indicated time. […]
# A2780 ovarian tumors = assay: A2780 ovarian subcutaneous tumor growth; type: in vivo, mouse; conditions: for Tumor volume: Fig.3b a2780, 3mg/kg p.o. QD x 15D, n=5, individual animals, in mm³ (unit assumed)
# From the text: PO, oral administration; QD, once daily; BID, twice daily. b–d Tumor growth curves for A2780 ovarian tumor (n = 5) (b), TMD8 large B cell lymphoma (n = 6) (c), and B16F10 melanoma (n = 5) (d) bearing mice treated with the indicated compounds once daily for 11-21 days. e, f Tumor growth curves for A375 melanoma (n = 6) (e), and patient-derived xenograft (PDX) of melanoma (n = 5) (f) bearing mice treated with the indicated compounds once daily (5 days on, 2 days off) for 21 days. For d–f, NHWD-870 used is NHWD-870-HCl synthesized using Suzuki coupling route. Data are presented as mean ± SEM in (a, b, d, f) and mean + SEM in (c, e). p values were calculated using two-tailed, unpaired t tests. *p < 0.05; **p < 0.01; ***p < 0.001. Source data are provided as a Source Data file.
# 4–6 weeks old female BALB/c nude mice were used for most experiments, with the exception of 6–8 weeks old female C57BL/6 mice were used for B16F10 experiments, and 6–8 weeks old male BALB/c nude mice and SD rats were used for pharmacokinetic experiments. All animals were purchased from Shanghai SIPPR-Bk Lab Animal Co., Ltd. All animals were housed under a regimen of 12 h light/12 h dark cycles and specific pathogen-free conditions. 5×10^6 NCI-H526, ES-2, MDA-MB231, A2780, A375, B16F10, and TMD-8 cells (0.1 ml) were injected subcutaneously into female nude mice. The melanoma patient-derived xenograft model was derived from a human melanoma sample (BRAF, NARS and NF1 wild type, and p53 mutant) removed from a patient in Xiangya Hospital. Surgically removed tumor fragments were implanted subcutaneously into female NSG mice. When the tumors grew to ~1000 mm^3, they were harvested and cryopreserved or immediately re-implanted for expansion or experiments. Mouse body weight and tumor sizes were measured every 3 days. Once the tumors grew to 150–200 mm^3, mice were treated with the compounds as described in the Figures. 1 × 10^6 A2780 cells (1 ml) were injected into the abdominal cavity of nude mice. Ascitic volume and tumor weight were measured by an electronic balance. All the procedures were evaluated and approved by the Institutional Animal Care and Use Committee of Central South University and Yale University.
structure (smiles),measurement,setting,value
Cc1nnn(C)c1-c1cnc2c3c4cnn(C)c4ccc3n([C@H](c3ccccc3)C3CCOCC3)c2c1 [NHWD-870],"MTT assay, relative cell number","H526 cells; H526, 0.1 nM",0.977 and 0.969 and 0.948
same,"MTT assay, relative cell number","H526 cells; H526, 1 nM",0.658 and 0.633 and 0.625
same,"MTT assay, relative cell number","H526 cells; H526, 10 nM",0.268 and 0.226 and 0.235
same,"MTT assay, relative cell number","H526 cells; H526, 100 nM",0.103 and 0.115 and 0.127
same,"MTT assay, relative cell number","H526 cells; H526, 500 nM",0
same,"MTT assay, relative cell number","H526 cells; H526, 1000 nM",0
same,"MTT assay, relative cell number","H526 cells; H526, 5000 nM",0
same,"MTT assay, relative cell number","H526 cells; H526, 10000 nM",0
same,Analyte Concentration in Tumor Homogenate,"[1]; Group 2, 3 mg/kg QD, 8h, individual animals",51.4 ng/mL and 12.9 ng/mL and 16.6 ng/mL
same,Analyte Concentration in Lung Homogenate,"[1]; Group 2, 3 mg/kg QD, 8h, individual animals, LLOQ 1 ng/mL",13.8 ng/mL and 4.51 ng/mL and 8.51 ng/mL
same,Analyte Concentration in Lung,"[1]; Group 2, 3 mg/kg QD, 8h, individual animals, LLOQ 10 ng/g",138 ng/g and 45.1 ng/g and 85.1 ng/g
same,Analyte Concentration in Tumor,"[1]; Group 2, 3 mg/kg QD, 8h, individual animals, dilution factor 10",514 ng/g and 129 ng/g and 166 ng/g
same,Analyte Concentration in Tumor Homogenate,"[1]; Group 2, 3 mg/kg QD, 24h, individual animals",3.37 ng/mL and 2.3 ng/mL and 5.48 ng/mL
same,Analyte Concentration in Lung Homogenate,"[1]; Group 2, 3 mg/kg QD, 24h, individual animals, LLOQ 1 ng/mL",BQL
same,Analyte Concentration in Lung,"[1]; Group 2, 3 mg/kg QD, 24h, individual animals, LLOQ 10 ng/g",BQL
same,Analyte Concentration in Tumor,"[1]; Group 2, 3 mg/kg QD, 24h, individual animals, dilution factor 10",33.7 ng/g and 23 ng/g and 54.8 ng/g
same,Analyte Concentration in Tumor Homogenate,"[1]; Group 3, 1.5 mg/kg QD, 8h, individual animals",19.2 ng/mL and 22.1 ng/mL
same,Analyte Concentration in Lung Homogenate,"[1]; Group 3, 1.5 mg/kg QD, 8h, individual animals, LLOQ 1 ng/mL",6.31 ng/mL and 9.86 ng/mL
same,Analyte Concentration in Lung,"[1]; Group 3, 1.5 mg/kg QD, 8h, individual animals, LLOQ 10 ng/g",63.1 ng/g and 98.6 ng/g
same,Analyte Concentration in Tumor,"[1]; Group 3, 1.5 mg/kg QD, 8h, individual animals, dilution factor 10",192 ng/g and 221 ng/g
same,Analyte Concentration in Tumor Homogenate,"[1]; Group 3, 1.5 mg/kg QD, 24h, individual animals",2.34 ng/mL and 1.67 ng/mL
same,Analyte Concentration in Lung Homogenate,"[1]; Group 3, 1.5 mg/kg QD, 24h, individual animals, LLOQ 1 ng/mL",BQL
same,Analyte Concentration in Lung,"[1]; Group 3, 1.5 mg/kg QD, 24h, individual animals, LLOQ 10 ng/g",BQL
same,Analyte Concentration in Tumor,"[1]; Group 3, 1.5 mg/kg QD, 24h, individual animals, dilution factor 10",23.4 ng/g and 16.7 ng/g
same,Analyte Concentration in Tumor Homogenate,"[1]; Group 4, 3 mg/kg Q2D, 8h, individual animals",82.3 ng/mL and 21.5 ng/mL and 23.8 ng/mL
same,Analyte Concentration in Lung Homogenate,"[1]; Group 4, 3 mg/kg Q2D, 8h, individual animals, LLOQ 1 ng/mL",49.2 ng/mL and 8.34 ng/mL and 15.8 ng/mL
same,Analyte Concentration in Lung,"[1]; Group 4, 3 mg/kg Q2D, 8h, individual animals, LLOQ 10 ng/g",492 ng/g and 83.4 ng/g and 158 ng/g
same,Analyte Concentration in Tumor,"[1]; Group 4, 3 mg/kg Q2D, 8h, individual animals, dilution factor 10",823 ng/g and 215 ng/g and 238 ng/g
same,Analyte Concentration in Tumor Homogenate,"[1]; Group 4, 3 mg/kg Q2D, 24h, individual animals",6.96 ng/mL and 4.06 ng/mL and 14.6 ng/mL
same,Analyte Concentration in Lung Homogenate,"[1]; Group 4, 3 mg/kg Q2D, 24h, individual animals, LLOQ 1 ng/mL",6.96 ng/mL and BQL and 2.42 ng/mL
same,Analyte Concentration in Lung,"[1]; Group 4, 3 mg/kg Q2D, 24h, individual animals, LLOQ 10 ng/g",69.6 ng/g and BQL and 24.2 ng/g
same,Analyte Concentration in Tumor,"[1]; Group 4, 3 mg/kg Q2D, 24h, individual animals, dilution factor 10",69.6 ng/g and 40.6 ng/g and 146 ng/g
same,penetration into the lungs and SCLC tumors,"[1]; H526 xenograft model, oral 3 mg/kg daily for 21 days",good penetration into the lungs and SCLC tumors
same,concentration at 8 h,"[1]; lung homogenate, 1.5 mg/kg, Group 3, 1.5 mg/kg QD, 8h, individual animals, LLOQ 1 ng/mL, read-out: Analyte Concentration in Lung Homogenate",5.65 ng/mL
same,concentration at 24 h,"[1]; lung homogenate, 3 mg/kg, Group 2, 3 mg/kg QD, 24h, individual animals, LLOQ 1 ng/mL, read-out: Analyte Concentration in Lung Homogenate",1.12 ng/mL
same,concentration at 8 h,"[1]; lung, 1.5 mg/kg, Group 3, 1.5 mg/kg QD, 8h, individual animals, LLOQ 10 ng/g, read-out: Analyte Concentration in Lung",56.5 ng/g
same,concentration at 8 h,"[1]; lung, 1.5 mg/kg, Group 3, 1.5 mg/kg QD, 8h, mean, read-out: Mean Concentration in Lung",72.7 ng/g
same,concentration at 8 h,"[1]; lung, 3 mg/kg, Group 2, 3 mg/kg QD, 8h, mean, read-out: Mean Concentration in Lung",89.4 ng/g
same,concentration at 24 h,"[1]; lung, 3 mg/kg, Group 2, 3 mg/kg QD, 24h, individual animals, LLOQ 10 ng/g, read-out: Analyte Concentration in Lung",11.2 ng/g
same,concentration at 8 h,"[1]; lung, 3 mg/kg, Group 4, 3 mg/kg Q2D, 8h, mean, read-out: Mean Concentration in Lung",244 ng/g
same,concentration at 24 h,"[1]; lung, 3 mg/kg, Group 4, 3 mg/kg Q2D, 24h, mean, read-out: Mean Concentration in Lung",46.9 ng/g
same,concentration at 8 h,"[1]; tumor homogenate, 1.5 mg/kg, Group 3, 1.5 mg/kg QD, 8h, individual animals, read-out: Analyte Concentration in Tumor Homogenate",14.3 ng/mL
same,concentration at 24 h,"[1]; tumor homogenate, 1.5 mg/kg, Group 3, 1.5 mg/kg QD, 24h, individual animals, read-out: Analyte Concentration in Tumor Homogenate",2.06 ng/mL
same,concentration at 8 h,"[1]; tumor, 1.5 mg/kg, Group 3, 1.5 mg/kg QD, 8h, individual animals, dilution factor 10, read-out: Analyte Concentration in Tumor",143 ng/g
same,concentration at 8 h,"[1]; tumor, 1.5 mg/kg, Group 3, 1.5 mg/kg QD, 8h, mean, read-out: Mean Concentration in Tumor",185 ng/g
same,concentration at 24 h,"[1]; tumor, 1.5 mg/kg, Group 3, 1.5 mg/kg QD, 24h, individual animals, dilution factor 10, read-out: Analyte Concentration in Tumor",20.6 ng/g
same,concentration at 24 h,"[1]; tumor, 1.5 mg/kg, Group 3, 1.5 mg/kg QD, 24h, mean, read-out: Mean Concentration in Tumor",20.2 ng/g
same,concentration at 8 h,"[1]; tumor, 3 mg/kg, Group 2, 3 mg/kg QD, 8h, mean, read-out: Mean Concentration in Tumor",270 ng/g
same,concentration at 24 h,"[1]; tumor, 3 mg/kg, Group 2, 3 mg/kg QD, 24h, mean, read-out: Mean Concentration in Tumor",37.2 ng/g
same,concentration at 8 h,"[1]; tumor, 3 mg/kg, Group 4, 3 mg/kg Q2D, 8h, mean, read-out: Mean Concentration in Tumor",425 ng/g
same,concentration at 24 h,"[1]; tumor, 3 mg/kg, Group 4, 3 mg/kg Q2D, 24h, mean, read-out: Mean Concentration in Tumor",85.4 ng/g
same,effect on tumor growth,"A2780 ovarian tumors; A2780 ovarian tumors, oral once daily",strong tumor regression activity
same,Tumor volume,A2780 ovarian tumors; day 3,437 and 185 and 30 and 119 and 617
same,Tumor volume,A2780 ovarian tumors; day 6,183 and 151 and 27 and 79 and 405
same,Tumor volume,A2780 ovarian tumors; day 9,150 and 191 and 22 and 66 and 371
same,Tumor volume,A2780 ovarian tumors; day 12,110 and 138 and 20 and 56 and 270
same,Tumor volume,A2780 ovarian tumors; day 15,91 and 72 and 18 and 40 and 78
